From ChEMBL document CHEMBL4765282, “Design, synthesis and biological evaluation of 1H-pyrazolo [3,4-d]pyrimidine derivatives as PAK1 inhibitors that trigger apoptosis, ER stress and anti-migration effect in MDA-MB-231 cells” (Eur J Med Chem, 2020)
Activity calls are given as the source filed them.

Columns and labels:
[1] = system: MDA-MB-231; test: Induction of apoptosis in human MDA-MB-231 cells assessed as viable cells at 10 uM measured after 24 hrs by Annexin V-FITC/propidium iodide staining based flow cytometry (reference value: 98.46%); type: functional; conditions: read-out: Activity
[2] = Effect on TCP10L gene expression in human MDA-MB-231 cells by Trizol reagent based RNA sequencing analysis relative to control; type: functional
[3] = system: MDA-MB-231; test: Induction of apoptosis in human MDA-MB-231 cells assessed as necrotic cells at 40 uM measured after 24 hrs by Annexin V-FITC/propidium iodide staining based flow cytometry (reference value: 0.16%); type: functional
[4] = system: MDA-MB-231; test: Induction of apoptosis in human MDA-MB-231 cells assessed as early apoptotic cells at 40 uM measured after 24 hrs by Annexin V-FITC/propidium iodide staining based flow cytometry (reference value: 0.81%); type: functional
[5] = system: MDA-MB-231; test: Up regulation of E-cadherin expression in human MDA-MB-231 cells at 10 to 40 uM measured after 24 hrs by Western blot analysis; type: functional, cell-based; conditions: dose 10-40 µM
[6] = Effect on ALPP gene expression in human MDA-MB-231 cells by Trizol reagent based RNA sequencing analysis relative to control; type: functional
[7] = system: MDA-MB-231; test: Inhibition of AKT phosphorylation at Ser473 residue in human MDA-MB-231 cells at 20 uM measured after 24 hrs by immunofluorescence analysis; type: cell-based
[8] = system: MDA-MB-231; test: Induction of apoptosis in human MDA-MB-231 cells assessed as early apoptotic cells at 10 uM measured after 24 hrs by Annexin V-FITC/propidium iodide staining based flow cytometry (reference value: 0.81%); type: functional
[9] = system: MDA-MB-231; test: Induction of apoptosis in human MDA-MB-231 cells assessed as increase in caspase-8 cleavage at 10 to 40 uM measured after 24 hrs by Western blot analysis; type: functional, cell-based; conditions: dose 10-40 µM
[10] = Effect on MMP3 gene expression in human MDA-MB-231 cells by Trizol reagent based RNA sequencing analysis relative to control; type: functional
[11] = system: MDA-MB-231; test: Upregulation of PERK expression in human MDA-MB-231 cells transfected with si-PAK1 at 10 uM measured after 24 hrs by Western blot analysis; type: functional, cell-based
[12] = target: T1, Serine/threonine-protein kinase PAK 1 (Homo sapiens, UniProt Q13153); test: Inhibition of PAK1 in human MDA-MB-231 cells assessed as reduction in ERK1/2 phosphorylation at Thr202/Tyr204 residues at 10 to 40 uM measured after 24 hrs by Western blot analysis; type: cell-based; conditions: dose 10-40 µM
[13] = Effect on GARS gene expression in human MDA-MB-231 cells by Trizol reagent based RNA sequencing analysis relative to control; type: functional
[14] = system: MDA-MB-231; test: Upregulation of ATF4 expression in human MDA-MB-231 cells at 10 to 40 uM measured after 24 hrs by Western blot analysis; type: functional, cell-based; conditions: dose 10-40 µM
[15] = Effect on TRIB3 gene expression in human MDA-MB-231 cells by Trizol reagent based RNA sequencing analysis relative to control; type: functional
[16] = Effect on G0S2 gene expression in human MDA-MB-231 cells by Trizol reagent based RNA sequencing analysis relative to control; type: functional
[17] = system: MDA-MB-231; test: Induction of apoptosis in human MDA-MB-231 cells assessed as viable cells at 20 uM measured after 24 hrs by Annexin V-FITC/propidium iodide staining based flow cytometry (reference value: 98.46%); type: functional; conditions: read-out: Activity
[18] = system: MDA-MB-231; test: Inhibition of PI3K/AKT/mTOR signaling in human MDA-MB-231 cells assessed as reduction in AKT phosphorylation at 10 to 40 uM after 24 hrs by Western blot analysis; type: cell-based; conditions: dose 10-40 µM
[19] = Effect on MIA2 gene expression in human MDA-MB-231 cells by Trizol reagent based RNA sequencing analysis relative to control; type: functional
[20] = Effect on CASC10 gene expression in human MDA-MB-231 cells by Trizol reagent based RNA sequencing analysis relative to control; type: functional
[21] = Effect on PPP1R15A gene expression in human MDA-MB-231 cells by Trizol reagent based RNA sequencing analysis relative to control; type: functional
[22] = Effect on JUN gene expression in human MDA-MB-231 cells by Trizol reagent based RNA sequencing analysis relative to control; type: functional
[23] = Effect on CHAC1 gene expression in human MDA-MB-231 cells by Trizol reagent based RNA sequencing analysis relative to control; type: functional
[24] = Effect on ASNS gene expression in human MDA-MB-231 cells by Trizol reagent based RNA sequencing analysis relative to control; type: functional
[25] = system: MDA-MB-231; test: Inhibition of human MDA-MB-231 cell migration measured after 24 hrs by phase contrast microscopy based transwell assay; type: functional
[26] = system: MDA-MB-231; test: Inhibition of PI3K/AKT/mTOR signaling in human MDA-MB-231 cells assessed as reduction in mTOR phosphorylation at 10 to 40 uM after 24 hrs by Western blot analysis; type: cell-based; conditions: dose 10-40 µM
[27] = target: T1, Serine/threonine-protein kinase PAK 1; test: Inhibition of PAK1 in human MDA-MB-231 cells assessed as reduction in c-Raf phosphorylation at Ser259 residues at 10 to 40 uM measured after 24 hrs by Western blot analysis; type: cell-based; conditions: dose 10-40 µM
[28] = Effect on HERPUD1 gene expression in human MDA-MB-231 cells by Trizol reagent based RNA sequencing analysis relative to control; type: functional
[29] = Upregulation of ATF4 gene expression in human MDA-MB-231 cells by Trizol reagent based RNA sequencing analysis relative to control; type: functional
[30] = system: MDA-MB-231; test: Up regulation of FOXO3a expression in human MDA-MB-231 cells at 10 to 40 uM measured after 24 hrs by Western blot analysis; type: functional, cell-based; conditions: dose 10-40 µM
[31] = system: MDA-MB-231; test: Down regulation of PAK1 expression in human MDA-MB-231 cells at 20 uM measured after 24 hrs by immunofluorescence analysis; type: functional, cell-based
[32] = Effect on CXCL2 gene expression in human MDA-MB-231 cells by Trizol reagent based RNA sequencing analysis relative to control; type: functional
[33] = target: T1, Serine/threonine-protein kinase PAK 1; test: Inhibition of PAK1 (unknown origin) […] measured after 40 mins by ADP-glo kinase assay
[34] = Effect on CTGF gene expression in human MDA-MB-231 cells by Trizol reagent based RNA sequencing analysis relative to control; type: functional
[35] = Effect on GDF15 gene expression in human MDA-MB-231 cells by Trizol reagent based RNA sequencing analysis relative to control; type: functional
[36] = system: MDA-MB-231; test: Upregulation of PERK expression in human MDA-MB-231 cells at 10 to 40 uM measured after 24 hrs by Western blot analysis; type: functional, cell-based; conditions: dose 10-40 µM
[37] = system: MDA-MB-231; test: Upregulation of CHOP expression in human MDA-MB-231 cells at 10 to 40 uM measured after 24 hrs by Western blot analysis; type: functional, cell-based; conditions: dose 10-40 µM
[38] = target: T1, Serine/threonine-protein kinase PAK 1; test: Inhibition of PAK1 phosphorylation at Thr212 residues in human MDA-MB-231 cells at 10 to 40 uM measured after 24 hrs by Western blot analysis; type: cell-based; conditions: dose 10-40 µM
[39] = system: MDA-MB-231; test: Upregulation of XBP-1s expression in human MDA-MB-231 cells at 10 to 40 uM measured after 24 hrs by Western blot analysis; type: functional, cell-based; conditions: dose 10-40 µM

T1 sequence (Q13153 whole entry): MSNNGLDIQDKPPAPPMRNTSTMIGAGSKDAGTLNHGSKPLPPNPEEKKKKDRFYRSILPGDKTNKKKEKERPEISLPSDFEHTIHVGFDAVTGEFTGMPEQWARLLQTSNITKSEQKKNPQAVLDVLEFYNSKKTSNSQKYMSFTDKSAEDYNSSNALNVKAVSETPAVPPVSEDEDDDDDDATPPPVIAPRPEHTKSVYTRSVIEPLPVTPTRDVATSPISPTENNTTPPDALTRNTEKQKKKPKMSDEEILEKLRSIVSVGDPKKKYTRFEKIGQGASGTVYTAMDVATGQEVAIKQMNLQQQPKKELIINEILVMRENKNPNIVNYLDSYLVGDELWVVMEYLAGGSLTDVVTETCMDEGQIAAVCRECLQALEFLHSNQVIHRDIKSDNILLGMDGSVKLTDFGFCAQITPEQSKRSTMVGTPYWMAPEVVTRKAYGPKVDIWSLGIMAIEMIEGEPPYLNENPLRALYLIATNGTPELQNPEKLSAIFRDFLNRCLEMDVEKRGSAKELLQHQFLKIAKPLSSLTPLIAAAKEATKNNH

O=C(Nc1cc(C(F)(F)F)cc(C(F)(F)F)c1)NC1CCN(c2ncnc3[nH]ncc23)CC1
active: Activity [5] | inhibition [7] | Activity [9] | inhibition [12] | Activity [14] | inhibition [18] | inhibition [25] | inhibition [26] | inhibition [27] | Activity [30] | Activity [31] | Activity [36] | Activity [37] | inhibition [38] | Activity [39]
88%: viability at 10 µM [1]
7.16%: Activity [8]
0.91%: Activity [3]
170 nM: IC50 [33]
77.3%: viability at 20 µM [17]
14.79%: Activity [4]
>2: fold change (FC) [2] | fold change (FC) [6] | fold change (FC) [10] | fold change (FC) [13] | fold change (FC) [15] | fold change (FC) [16] | fold change (FC) [19] | fold change (FC) [20] | fold change (FC) [21] | fold change (FC) [22] | fold change (FC) [23] | fold change (FC) [24] | fold change (FC) [28] | fold change (FC) [29] | fold change (FC) [32] | fold change (FC) [34] | fold change (FC) [35]
inactive: Activity [11]
